From patent US10757941B2, “Microbiocidal oxadiazole derivatives” (SYNGENTA PARTICIPATIONS AG, priority 2016, dated 2020)

Columns and labels:
[1] = system: Uromyces viciae-fabael; assay: Fungicidal activity against Uromyces viciae-fabae / field bean / leaf disc preventative (faba-bean rust); type: in vivo; conditions: foliar, 288 h, 100 ppm in the applied formulation, field bean leaf discs, preventative (inoculated two hours after application), assessed 12 days after application, compared to untreated, read-out: disease control
Description: Leaf disks or leaf segments of various plant species are cut from plants grown in a greenhouse. The cut leaf disks or segments are placed in multiwell plates (24-well format) onto water agar. The leaf disks are sprayed with a test solution before (preventative) or after (curative) inoculation. Compounds to be tested are prepared as DMSO solutions (max. 10 mg/ml) which are diluted to the appropriate concentration with 0.025% Tween20 just before spraying. The inoculated leaf disks or segments are incubated under defined conditions (temperature, relative humidity, light, etc.) according to the respective test system. A single evaluation of disease level is carried out 3 to 14 days after inoculation, depending on the pathosystem. Percent disease control relative to the untreated check leaf disks or segments is then calculated. Example 5: Fungicidal Activity Against Uromyces viciae-fabael Field Bean/Leaf Disc Preventative (Faba-Bean Rust) Field bean leaf discs are placed on water agar in multiwell plates (96-well format) and 10 μl of the formulated test compound diluted in acetone and a spreader pipetted onto the leaf disc. Two hours after application leaf discs are inoculated by spraying a spore suspension on the lower leaf surface. The leaf discs are incubated in a climate cabinet at 22° C. with 18 hour day and 70% relative humidity. The activity of a compound is assessed as percent disease control compared to untreated when an appropriate level of disease damage appears in untreated check leaf disks (12 days after application). The following compounds at 100 ppm in the applied formulation give at least 80% disease control in this test when compared to untreated control leaf discs under the same conditions, which show extensive disease development.

[2] = system: Puccinia recondita f. Sp. Tritici; assay: Fungicidal activity against Puccinia recondita f. sp. tritici / wheat / leaf disc preventative (brown rust); type: in vivo; conditions: foliar, 200 ppm in the applied formulation, wheat leaf segments cv. Kanzler, preventative (inoculated 1 day after application), assessed 7 to 9 days after application, compared to untreated, read-out: disease control
Description: Leaf disks or leaf segments of various plant species are cut from plants grown in a greenhouse. The cut leaf disks or segments are placed in multiwell plates (24-well format) onto water agar. The leaf disks are sprayed with a test solution before (preventative) or after (curative) inoculation. Compounds to be tested are prepared as DMSO solutions (max. 10 mg/ml) which are diluted to the appropriate concentration with 0.025% Tween20 just before spraying. The inoculated leaf disks or segments are incubated under defined conditions (temperature, relative humidity, light, etc.) according to the respective test system. A single evaluation of disease level is carried out 3 to 14 days after inoculation, depending on the pathosystem. Percent disease control relative to the untreated check leaf disks or segments is then calculated. Example 1: Fungicidal Activity Against Puccinia recondita f. Sp. Tritici/Wheat/Leaf Disc Preventative (Brown Rust) Wheat leaf segments cv. Kanzler were placed on agar in multiwell plates (24-well format) and sprayed with the formulated test compound diluted in water. The leaf disks were inoculated with a spore suspension of the fungus 1 day after application. The inoculated leaf segments were incubated at 19° C. and 75% relative humidity (rh) under a light regime of 12 hours light/12 hours darkness in a climate cabinet and the activity of a compound was assessed as percent disease control compared to untreated when an appropriate level of disease damage appears in untreated check leaf segments (7 to 9 days after application). The following compounds at 200 ppm in the applied formulation give at least 80% disease control in this test when compared to untreated control leaf disks under the same conditions, which show extensive disease development.

[3] = system: Phakopsora pachyrhizi; assay: Fungicidal activity against Phakopsora pachyrhizi / soybean / leaf disc preventative (Asian soybean rust); type: in vivo; conditions: foliar, 200 ppm in the applied formulation, soybean leaf disks, preventative (inoculated one day after application), assessed 12 to 14 days after application, compared to untreated, read-out: disease control
Description: Leaf disks or leaf segments of various plant species are cut from plants grown in a greenhouse. The cut leaf disks or segments are placed in multiwell plates (24-well format) onto water agar. The leaf disks are sprayed with a test solution before (preventative) or after (curative) inoculation. Compounds to be tested are prepared as DMSO solutions (max. 10 mg/ml) which are diluted to the appropriate concentration with 0.025% Tween20 just before spraying. The inoculated leaf disks or segments are incubated under defined conditions (temperature, relative humidity, light, etc.) according to the respective test system. A single evaluation of disease level is carried out 3 to 14 days after inoculation, depending on the pathosystem. Percent disease control relative to the untreated check leaf disks or segments is then calculated. Example 3: Fungicidal Activity Against Phakopsora pachyrhizi/Soybean/Leaf Disc Preventative (Asian Soybean Rust) Soybean leaf disks are placed on water agar in multiwell plates (24-well format) and sprayed with the formulated test compound diluted in water. One day after application leaf discs are inoculated by spraying a spore suspension on the lower leaf surface. After an incubation period in a climate cabinet of 24-36 hours in darkness at 20° C. and 75% rh leaf disc are kept at 20° C. with 12 h light/day and 75% rh. The activity of a compound is assessed as percent disease control compared to untreated when an appropriate level of disease damage appears in untreated check leaf disks (12 to 14 days after application). The following compounds at 200 ppm in the applied formulation give at least 80% disease control in this test when compared to untreated control leaf disks under the same conditions, which show extensive disease development.

[4] = system: Glomerella lagenarium (Colletotrichum lagenarium); assay: Fungicidal activity against Glomerella lagenarium (Colletotrichum lagenarium) liquid culture / cucumber / preventative (anthracnose); type: cell-based; conditions: Colletotrichum orbiculare; 20 ppm in the applied formulation; liquid culture in PDB, 24° C.; inhibition of growth measured photometrically 3 to 4 days after application; compared to untreated; read-out: disease control
Description: Mycelia fragments or conidia suspensions of a fungus prepared either freshly from liquid cultures of the fungus or from cryogenic storage, are directly mixed into nutrient broth. DMSO solutions of the test compound (max. 10 mg/ml) are diluted with 0.025% Tween20 by a factor of 50 and 10 μl of this solution is pipetted into a microtiter plate (96-well format). The nutrient broth containing the fungal spores/mycelia fragments is then added to give an end concentration of the tested compound. The test plates are incubated in the dark at 24° C. and 96% relative humidity. The inhibition of fungal growth is determined photometrically after 2 to 7 days, depending on the pathosystem, and percent antifungal activity relative to the untreated check is calculated. Example 4: Fungicidal Activity Against Glomerella lagenarium (Colletotrichum lagenarium) Liquid Culture/Cucumber/Preventative (Anthracnose) Conidia of the fungus from cryogenic storage are directly mixed into nutrient broth (PDB—potato dextrose broth). After placing a (DMSO) solution of test compound into a microtiter plate (96-well format), the nutrient broth containing the fungal spores is added. The test plates are incubated at 24° C. and the inhibition of growth is measured photometrically 3 to 4 days after application. The following compounds at 20 ppm in the applied formulation give at least 80% disease control in this test when compared to untreated control under the same conditions, which show extensive disease development.

[5] = system: Puccinia recondita f. Sp. Tritici; assay: Fungicidal activity against Puccinia recondita f. sp. tritici / wheat / leaf disc curative (brown rust); type: in vivo; conditions: foliar, 200 ppm in the applied formulation, wheat leaf segments cv. Kanzler, curative (applied 1 day after inoculation), assessed 6 to 8 days after application, compared to untreated, read-out: disease control
Description: Leaf disks or leaf segments of various plant species are cut from plants grown in a greenhouse. The cut leaf disks or segments are placed in multiwell plates (24-well format) onto water agar. The leaf disks are sprayed with a test solution before (preventative) or after (curative) inoculation. Compounds to be tested are prepared as DMSO solutions (max. 10 mg/ml) which are diluted to the appropriate concentration with 0.025% Tween20 just before spraying. The inoculated leaf disks or segments are incubated under defined conditions (temperature, relative humidity, light, etc.) according to the respective test system. A single evaluation of disease level is carried out 3 to 14 days after inoculation, depending on the pathosystem. Percent disease control relative to the untreated check leaf disks or segments is then calculated. Example 2: Fungicidal Activity Against Puccinia recondita f. Sp. Tritici/Wheat/Leaf Disc Curative (Brown Rust) Wheat leaf segments cv. Kanzler are placed on agar in multiwell plates (24-well format). The leaf segments are then inoculated with a spore suspension of the fungus. Plates were stored in darkness at 19° C. and 75% relative humidity. The formulated test compound diluted in water was applied 1 day after inoculation. The leaf segments were incubated at 19° C. and 75% relative humidity under a light regime of 12 hours light/12 hours darkness in a climate cabinet and the activity of a compound was assessed as percent disease control compared to untreated when an appropriate level of disease damage appears in untreated check leaf segments (6 to 8 days after application). The following compounds at 200 ppm in the applied formulation give at least 80% disease control in this test when compared to untreated control leaf disks under the same conditions, which show extensive disease development.

Cc1ccc(C)c(CNC(=O)c2ccc(-c3noc(C(F)(F)F)n3)c(F)c2)c1 [Compound 1.3, N-[(2,5-dimethyl-phenyl)methyl]-3-fluoro-4-[5-(trifluoromethyl)-1,2,4-oxadiazol-3-yl]benzamide]
≥ 80%: pest or weed control at 100 ppm [1] | pest or weed control at 200 ppm [2] | pest or weed control at 200 ppm [3]

COc1ccc2[nH]cc(CCNC(=O)c3ccc(-c4noc(C(F)(F)F)n4)c(F)c3)c2c1 [Compound 1.4, 3-fluoro-N-[2-(5-methoxy-1H-indol-3-yl)ethyl]-4-[5-(trifluoromethyl)-1,2,4-oxadiazol-3-yl]benzamide]
≥ 80%: pest or weed control at 100 ppm [1] | inhibition of growth at 20 ppm [4] | pest or weed control at 200 ppm [2] | pest or weed control at 200 ppm [3]

CSCCCNC(=O)c1ccc(-c2noc(C(F)(F)F)n2)c(F)c1 [Compound 1.6, 3-fluoro-N-(3-methylsulfanyl-propyl)-4-[5-(trifluoromethyl)-1,2,4-oxadiazol-3-yl]benzamide]
≥ 80%: pest or weed control at 100 ppm [1] | pest or weed control at 200 ppm [2] | pest or weed control at 200 ppm [5]

C#CC1(NC(=O)c2ccc(-c3noc(C(F)(F)F)n3)c(F)c2)CCCCC1 [Compound 1.8, N-(1-ethynylcyclohexyl)-3-fluoro-4-[5-(trifluoromethyl)-1,2,4-oxadiazol-3-yl]benzamide]
≥ 80%: pest or weed control at 100 ppm [1] | inhibition of growth at 20 ppm [4] | pest or weed control at 200 ppm [2] | pest or weed control at 200 ppm [3]

O=C(NCCSCc1ccc(Cl)nc1)c1ccc(-c2noc(C(F)(F)F)n2)c(F)c1 [Compound 1.10, N-[2-[(6-chloro-3-pyridyl)methyl-sulfanyl]ethyl]-3-fluoro-4-[5-(trifluoromethyl)-1,2,4-oxadiazol-3-yl]benzamide]
≥ 80%: pest or weed control at 100 ppm [1] | inhibition of growth at 20 ppm [4] | pest or weed control at 200 ppm [2] | pest or weed control at 200 ppm [3]

COC(=O)C1(NC(=O)c2ccc(-c3noc(C(F)(F)F)n3)c(F)c2)CCN(OC)CC1 [Compound 1.13, methyl 4-[[3-fluoro-4-[5-(trifluoromethyl)-1,2,4-oxadiazol-3-yl]benzoyl]amino]-1-methoxy-piperidine-4-carboxylate]
≥ 80%: pest or weed control at 100 ppm [1] | pest or weed control at 200 ppm [2] | pest or weed control at 200 ppm [5]

O=C(NC1CCc2ccccc21)c1ccc(-c2noc(C(F)(F)F)n2)c(F)c1 (centres unmarked) [Compound 1.15, 3-fluoro-N-indan-1-yl-4-[5-(trifluoromethyl)-1,2,4-oxadiazol-3-yl]benzamide]
≥ 80%: pest or weed control at 100 ppm [1] | pest or weed control at 200 ppm [2] | pest or weed control at 200 ppm [3]

CC(C)(CS(C)(=O)=O)NC(=O)c1ccc(-c2noc(C(F)(F)F)n2)c(F)c1 [Compound 1.22, N-(1,1-dimethyl-2-methylsulfonyl-ethyl)-3-fluoro-4-[5-(trifluoromethyl)-1,2,4-oxadiazol-3-yl]benzamide]
≥ 80%: pest or weed control at 100 ppm [1] | pest or weed control at 200 ppm [2] | pest or weed control at 200 ppm [5]

O=C(NCC1CC(F)(F)C1(F)F)c1ccc(-c2noc(C(F)(F)F)n2)c(F)c1 (centres unmarked) [Compound 1.23, 3-fluoro-N-[(2,2,3,3-tetrafluoro-cyclobutyl)methyl]-4-[5-(trifluoromethyl)-1,2,4-oxadiazol-3-yl]benzamide]
≥ 80%: pest or weed control at 100 ppm [1] | inhibition of growth at 20 ppm [4] | pest or weed control at 200 ppm [2] | pest or weed control at 200 ppm [3]

CC(C)CC(C)NC(=O)c1ccc(-c2noc(C(F)(F)F)n2)c(F)c1 (centres unmarked) [Compound 1.38, N-(1,3-dimethylbutyl)-3-fluoro-4-[5-(trifluoromethyl)-1,2,4-oxadiazol-3-yl]benzamide]
≥ 80%: pest or weed control at 100 ppm [1] | inhibition of growth at 20 ppm [4] | pest or weed control at 200 ppm [2] | pest or weed control at 200 ppm [3]
